Assay results: the supplement of paper PMC10307832

Experiments:
Assay in all cases: relative viability (nuclei count vs DMSO), 5 days (fraction); higher = more cells survive
[1] = compound: CCn1c(-c2nonc2N)nc2cnc(Oc3cccc(NC(=O)c4ccc(OCCN5CCOCC5)cc4)c3)cc21 + CS(=O)(=O)N1CCN(Cc2cc3nc(-c4cccc5[nH]ncc45)nc(N4CCOCC4)c3s2)CC1 [Pictilisib] (partner 1 µM)
How it was run: (§1)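 Lung cancer cell lines, seeded in 1536-well plates, were treated the following day by pin tool with a single drug or with five library-drug doses (not always all listed) in √10 steps on top of a fixed anchor-drug dose. Cells were fixed and nuclei stained in one step after 5 days, and nuclei were counted. Relative viability is the nuclei count for treated wells divided by that for vehicle wells, reported as medians of duplicate plates.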

[2] = compound: CCC1=CN=CN=C1N2CCN(CC2)CC3=NC4=C(N3)C=C(C=C4)C(F)(F)F + COc1cccc2cc(-c3nc([C@H]4CC[C@H](C(=O)O)CC4)n4ncnc(N)c34)[nH]c12 [OSI-027] (partner 0.5 µM)
How it was run: as §1

[3] = compound: CCC1=CN=CN=C1N2CCN(CC2)CC3=NC4=C(N3)C=C(C=C4)C(F)(F)F + Cc1cc(Nc2cc(N3CCN(C)CC3)nc(Sc3ccc(NC(=O)C4CC4)cc3)n2)n[nH]1 [Tozasertib] (partner 0.1 µM)
How it was run: as §1

[4] = compound: CCC1=CN=CN=C1N2CCN(CC2)CC3=NC4=C(N3)C=C(C=C4)C(F)(F)F + N=C(N)NC(=N)NCCc1ccccc1 [Phenformin] (partner 250 µM)
How it was run: as §1

UMC-11
relative viability ([1]; first compound 0.04 µM): 0.908 | relative viability ([1]; first compound 0.1265 µM): 0.751 | relative viability ([1]; first compound 0.4 µM): 0.464 | relative viability ([1]; first compound 1.265 µM): 0.241 | relative viability ([1]; first compound 4 µM): 0.188 | relative viability ([2]; first compound 0.04 µM): 0.464 | relative viability ([2]; first compound 0.1265 µM): 0.495 | relative viability ([2]; first compound 0.4 µM): 0.417 | relative viability ([2]; first compound 1.265 µM): 0.445 | relative viability ([2]; first compound 4 µM): 0.406 | relative viability ([3]; first compound 0.04 µM): 0.197 | relative viability ([3]; first compound 0.1265 µM): 0.216 | relative viability ([3]; first compound 0.4 µM): 0.216 | relative viability ([3]; first compound 1.265 µM): 0.204 | relative viability ([3]; first compound 4 µM): 0.214 | relative viability ([4]; first compound 0.04 µM): 0.327 | relative viability ([4]; first compound 0.1265 µM): 0.3 | relative viability ([4]; first compound 0.4 µM): 0.319 | relative viability ([4]; first compound 1.265 µM): 0.279 | relative viability ([4]; first compound 4 µM): 0.294
